Measurements as given in article PMC8621456, “New Investigations with Lupane Type A-Ring Azepane Triterpenoids for Antimycobacterial Drug Candidate Design” (International Journal of Molecular Sciences, 2021).
≈ marks a conversion by molar mass, not a printed value. Where “and” joins values, the source holds several entries; their conditions need not be identical. Equal values may be shown once. Read-outs that look alike come from different tables or passages of the source. Marks after values point to notes of the source that are not given here.

Legend:
M. avium (ATCC 25291) [1] = assay: MIC determination against NTM strains, microbroth dilution; type: cell-based; conditions: Mycobacterium avium, ATCC25291; NTM strain
M. tuberculosis H37Rv [2] = assay: Fractional inhibitory concentration (FIC), checkerboard with standard of care drugs; type: cell-based, Mycobacterium tuberculosis
[3] = system: M. abscessus (ATCC 19977); assay: MIC determination against NTM strains, microbroth dilution; type: cell-based, Mycobacterium abscessus; conditions: Mycobacteroides abscessus
[4] = system: M. abscessus (ATCC 19977); assay: Ex vivo efficacy in infected THP-1 macrophages; type: cell-based, Mycobacterium abscessus; conditions: Mycobacteroides abscessus
[5] = system: M. avium complex (ATCC 700,891 MAC 101); assay: Ex vivo efficacy in infected THP-1 macrophages; type: cell-based; conditions: Mycobacterium avium
M. tuberculosis H37Rv [6] = assay: microbe, parasite or virus in culture; type: cell-based; conditions: Mycobacterium tuberculosis, read-out: MIC (µM) H37Rv
MTB H37Rv = conditions: ref [26]; cited from earlier work
H37Rv (katG^del) = conditions: compound 1 included as reference; ref [26],[27],[28]; cited from earlier work
[7] = system: M. abscessus (ATCC 19977); conditions: compound 1 included as reference; ref [26],[27],[28]; cited from earlier work
M. avium (ATCC 25291) [8] = conditions: compound 1 included as reference; ref [26],[27],[28]; cited from earlier work
M. tuberculosis H37Rv [9] = conditions: compound 1 included as reference; ref [26],[27],[28]; cited from earlier work
[10] = ATCC19977, NTM strain, read-out: MIC (µM) M. abscessus 19977
[11] = ATCC19977, infected THP-1 macrophages, concentration for >90% inhibition, read-out: M. abscessus Ex Vivo Efficacy (>90% Inhibition µM)
[12] = ATCC700, infected THP-1 macrophages, concentration for >90% inhibition, read-out: M. avium Ex Vivo Efficacy (>90% Inhibition µM)
[13] = ATCC19977, read-out: MIC (µM) M. abscessus 19977
[14] = ATCC19977, THP-1, read-out: M. abscessus Ex Vivo Efficacy (>90% Inhibition µM)
[15] = ATCC700, THP-1, read-out: M. avium Ex Vivo Efficacy (>90% Inhibition µM)

| Compound | MIC (M. avium (ATCC 25291) [1]) | MIC [3, 10] | MIC (M. tuberculosis H37Rv [6]) | further results |
| --- | --- | --- | --- | --- |
| C=C(C)[C@@H]1CC[C@]2(C=NNC(=O)c3ccncc3)CC[C@]3(C)[C@H](CC[C@@H]4[C@@]5(C)CCCNC(C)(C)[C@@H]5CC[C@]43C)[C@@H]12 [Compound 7] | 4 µM (≈ 2.24 µg/mL) | 8 µM (≈ 4.47 µg/mL) | – | FIC value with Rifampin (M. tuberculosis H37Rv [2]): 1.0 Additive; FIC value with Ethambutol (M. tuberculosis H37Rv [2]; combination with Ethambutol): 1.0; FIC value with Isoniazid (M. tuberculosis H37Rv [2]; combination with Isoniazid): 0.8; IC90 [4, 11]: > 128 µM; IC90 [5, 12]: 128 µM |
| CO[C@H]1/C=C/O[C@@]2(C)Oc3c(C)c(O)c4c(O)c(c(/C=N/N5CCN(C)CC5)c(O)c4c3C2=O)NC(=O)/C(C)=C\C=C\[C@H](C)[C@H](O)[C@@H](C)[C@@H](O)[C@@H](C)[C@H](OC(C)=O)[C@@H]1C [Rifampin, reference compound] | 0.0625 µM (≈ 0.0514 µg/mL) | – | ≤ 0.004 µM | – |
| CC(C)=C1CCC=C2CC[C@]3(C)[C@H](CC[C@@H]4[C@@]5(C)CCCNC(C)(C)[C@@H]5CC[C@]43C)[C@H]21 [Compound 18] | 4 µM (≈ 1.69 µg/mL) | 32 µM (≈ 13.6 µg/mL) | 16 µM (≈ 6.78 µg/mL) | IC90 [4, 11]: > 128 µM; IC90 [5, 12]: 128 µM |
| C=C(C)[C@@H]1CC[C@]2(COC(C)=O)CC[C@]3(C)[C@H](CC[C@@H]4[C@@]5(C)CCCN(C(=O)c6cccnc6)C(C)(C)[C@@H]5CC[C@]43C)[C@@H]12 [Compound 12] | 4 µM (≈ 2.36 µg/mL) | 8 µM (≈ 4.71 µg/mL) | 32 µM (≈ 18.8 µg/mL) | – |
| C=C(C)[C@@H]1CC[C@]2(C(=O)N3CCN(C)CC3)CC[C@]3(C)[C@H](CC[C@@H]4[C@@]5(C)CCCNC(C)(C)[C@@H]5CC[C@]43C)[C@@H]12 [Compound 9] | 4 µM (≈ 2.15 µg/mL) | – | ≤ 4 µM | FIC value with Ethambutol (M. tuberculosis H37Rv [2]): 2.5 Indifferent; FIC value with Rifampin (M. tuberculosis H37Rv [2]): 1.5 Indifferent; MIC [3, 13]: ≤ 4 µM; IC90 [4, 14]: > 128 µM; IC90 [5, 15]: > 128 µM |
| C=C(C)[C@@H]1CC[C@]2(CN)CC[C@]3(C)[C@H](CC[C@@H]4[C@@]5(C)CCCNC(C)(C)[C@@H]5CC[C@]43C)[C@@H]12 [Compound 3] | 2 µM (≈ 0.882 µg/mL) | – | 8 µM (≈ 3.53 µg/mL) | FIC interpretation with Isoniazid (M. tuberculosis H37Rv [2]): 1.0 Additive (key: FIC VALUE ≤ 0.5 (Synergistic); 0.5–1.0 (Additive); 1.0–4.0 (Indifferent); > 4.0 (Antagonistic)); FIC interpretation with Rifampin (M. tuberculosis H37Rv [2]): 1.0 Additive (key: FIC VALUE ≤ 0.5 (Synergistic); 0.5–1.0 (Additive); 1.0–4.0 (Indifferent); > 4.0 (Antagonistic)); FIC value with Ethambutol (M. tuberculosis H37Rv [2]): 1.5 Indifferent; FIC value with Isoniazid (M. tuberculosis H37Rv [2]): 1.0 Additive; FIC value with Rifampin (M. tuberculosis H37Rv [2]): 1.0 Additive; MIC [3, 13]: 16 µM (≈ 7.05 µg/mL); IC90 [4, 14]: > 128 µM; IC90 [5, 15]: > 128 µM |
| NNC(=O)c1ccncc1 [Isoniazid, reference compound] | – | – | 0.03 µM (≈ 0.00411 µg/mL) | – |
| O=[N+]([O-])c1cn2c(n1)OC[C@@H](OCc1ccc(OC(F)(F)F)cc1)C2 [Pretomanid, reference compound] | – | – | 0.125 µM (≈ 0.0449 µg/mL) | – |
| C=C(C)[C@@H]1CC[C@]2(COC(=O)c3ccccc3C(=O)O)CC[C@]3(C)[C@H](CC[C@@H]4[C@@]5(C)CCCNC(C)(C)[C@@H]5CC[C@]43C)[C@@H]12 [Compound 4] | 4 µM (≈ 2.36 µg/mL) | – | 16 µM (≈ 9.44 µg/mL) | MIC [3, 13]: 16 µM (≈ 9.44 µg/mL) |
| C=C(C)[C@@H]1CC[C@]2(COS(=O)(=O)c3ccc(C)cc3)CC[C@]3(C)[C@H](CC[C@@H]4[C@@]5(C)CCCNC(C)(C)[C@@H]5CC[C@]43C)[C@@H]12 [Compound 6] | 1 µM (≈ 0.596 µg/mL) | – | 8 µM (≈ 4.77 µg/mL) | MIC [3, 13]: 8 µM (≈ 4.77 µg/mL) |
| A-azepano-28-cinnamoyloxybetulin | – | – | – | MBC against MTB H37Rv (MTB H37Rv): 4 µM; MIC against MTB H37Rv (MTB H37Rv): 2 µM |
| CC[C@H]1OC(=O)[C@H](C)[C@@H](O[C@H]2C[C@@](C)(OC)[C@@H](O)[C@H](C)O2)[C@H](C)[C@@H](O[C@@H]2O[C@H](C)C[C@H](N(C)C)[C@H]2O)[C@](C)(OC)C[C@@H](C)C(=O)[C@H](C)[C@@H](O)[C@]1(C)O [Clarithromycin, reference compound] | 0.125 µM (≈ 0.0935 µg/mL) | 4 µM (≈ 2.99 µg/mL) | – | IC90 [4, 11]: 128 µM; IC90 [5, 12]: 8 µM |
| C=C(C)[C@@H]1CC[C@]2(C)CC[C@]3(C)[C@H](CC[C@@H]4[C@@]5(C)CCCNC(C)(C)[C@@H]5CC[C@]43C)[C@@H]12 [Compound 2, azepano-lupeol] | 1 µM (≈ 0.426 µg/mL) | ≤ 4 µM | ≤ 4 µM | IC90 [4, 11]: > 128 µM; IC90 [5, 12]: > 128 µM |
| NCC[C@H](O)C(=O)N[C@@H]1C[C@H](N)[C@@H](O[C@H]2O[C@H](CN)[C@@H](O)[C@H](O)[C@H]2O)[C@H](O)[C@H]1O[C@H]1O[C@H](CO)[C@@H](O)[C@H](N)[C@H]1O [Amikacin, reference compound] | – | 8 µM (≈ 4.68 µg/mL) | – | – |
| COc1c(N2C[C@@H]3CCCN[C@@H]3C2)c(F)cc2c(=O)c(C(=O)O)cn(C3CC3)c12 [Moxifloxacin, reference compound] | – | – | 0.06 µM (≈ 0.0241 µg/mL) | – |
| C=C(C)[C@@H]1CC[C@]2(CO)CC[C@]3(C)[C@H](CC[C@@H]4[C@@]5(C)CCCNC(C)(C)[C@@H]5CC[C@]43C)[C@@H]12 [Compound 1, azepanobetulin] | – | – | – | MIC (µM) H37Rv (katG^del) (H37Rv (katG^del)): 2 * µM; MIC (µM) M. abscessus 19977 [7]: 8 * µM; IC90 [4, 11]: > 128 µM; MIC (µM) M. avium 25291 (M. avium (ATCC 25291) [8]): 0.125 µM and 0.125 * µM; IC90 [5, 12]: 8 µM; MIC (µM) H37Rv (M. tuberculosis H37Rv [9]): 4 * µM |
| C#CCNC(=O)[C@]12CC[C@@H](C(=C)C)[C@@H]1[C@H]1CC[C@@H]3[C@@]4(C)CCCNC(C)(C)[C@@H]4CC[C@@]3(C)[C@]1(C)CC2 [Compound 20, 17-(Propargyl)-3-deoxo-3a-homo-3a-aza-lup-20(29)-en-carboxamide] | 4 µM (≈ 1.97 µg/mL) | 16 µM (≈ 7.88 µg/mL) | ≤ 4 µM | – |
| CC(=O)[C@@H]1CC[C@]2(COS(=O)(=O)c3ccc(C)cc3)CC[C@]3(C)[C@H](CC[C@@H]4[C@@]5(C)CCCNC(C)(C)[C@@H]5CC[C@]43C)[C@@H]12 [Compound 13] | 2 µM (≈ 1.2 µg/mL) | 16 µM (≈ 9.57 µg/mL) | 32 µM (≈ 19.1 µg/mL) | – |
| CC1(C)CCC23CCC4(C)C(CCC5C6(C)CCCNC(C)(C)C6CCC54C)C2C1OC3 (stereo not drawn) [Compound 17] | 0.5 µM (≈ 0.221 µg/mL) | 16 µM (≈ 7.07 µg/mL) | 16 µM (≈ 7.07 µg/mL) | IC90 [4, 11]: > 128 µM; IC90 [5, 12]: > 128 µM |
| C=C(C)[C@@H]1CC[C@]2(COC(=O)c3cccnc3)CC[C@]3(C)[C@H](CC[C@@H]4[C@@]5(C)CCCNC(C)(C)[C@@H]5CC[C@]43C)[C@@H]12 [Compound 5] | 1 µM (≈ 0.547 µg/mL) | – | 8 µM (≈ 4.37 µg/mL) | MIC [3, 13]: 16 µM (≈ 8.75 µg/mL); IC90 [4, 14]: > 128 µM; IC90 [5, 15]: 32 µM |
| C=C(CBr)[C@@H]1CC[C@]2(COC(C)=O)CC[C@]3(C)[C@H](CC[C@@H]4[C@@]5(C)CCCNC(C)(C)[C@@H]5CC[C@]43C)[C@@H]12 [Compound 14] | 0.0625 µM (≈ 0.0352 µg/mL) | > 64 µM | > 32 µM | – |
| C=C(C)[C@@H]1CC[C@]2(COC(C)=O)CC[C@]3(C)[C@H](CC[C@@H]4[C@@]5(C)CCCN(C(C)=O)C(C)(C)[C@@H]5CC[C@]43C)[C@@H]12 [Compound 11] | 4 µM (≈ 2.1 µg/mL) | 16 µM (≈ 8.41 µg/mL) | 8 µM (≈ 4.21 µg/mL) | – |
| C=C(CN=[N+]=[N-])[C@@H]1CC[C@]2(COC(C)=O)CC[C@]3(C)[C@H](CC[C@@H]4[C@@]5(C)CCCNC(C)(C)[C@@H]5CC[C@]43C)[C@@H]12 [Compound 15] | 64 µM (≈ 33.6 µg/mL) | > 64 µM | > 32 µM | – |
| C=C(C)[C@@H]1CC[C@]2(C(=O)NC(CO)Cc3ccccc3)CC[C@]3(C)[C@H](CC[C@@H]4[C@@]5(C)CCCNC(C)(C)[C@@H]5CC[C@]43C)[C@@H]12 (stereo partly drawn) [Compound 8] | 4 µM (≈ 2.36 µg/mL) | – | 8 µM (≈ 4.71 µg/mL) | MIC [3, 13]: 32 µM (≈ 18.8 µg/mL); IC90 [4, 14]: > 128 µM; IC90 [5, 15]: 16 µM |
| C=C(C)[C@@H]1CC[C@]2(C(=O)NC3CCCCC3)CC[C@]3(C)[C@H](CC[C@@H]4[C@@]5(C)CCCNC(C)(C)[C@@H]5CC[C@]43C)[C@@H]12 [Compound 10] | 2 µM (≈ 1.07 µg/mL) | – | ≤ 4 µM | MIC [3, 13]: 8 µM (≈ 4.3 µg/mL); IC90 [4, 14]: > 128 µM; IC90 [5, 15]: 64 µM |
